Data on four compounds can be found in patent publication US7071197B2, “N,N-disubstituted diazocycloalkanes” (Recordati S.A., priority 2002, dated 2006).

The target in one assay is T1, human α1d-adrenoceptor (Homo sapiens, UniProt P25100).
T1 construct: expressed in transfected cells
T1 sequence (P25100 1-572): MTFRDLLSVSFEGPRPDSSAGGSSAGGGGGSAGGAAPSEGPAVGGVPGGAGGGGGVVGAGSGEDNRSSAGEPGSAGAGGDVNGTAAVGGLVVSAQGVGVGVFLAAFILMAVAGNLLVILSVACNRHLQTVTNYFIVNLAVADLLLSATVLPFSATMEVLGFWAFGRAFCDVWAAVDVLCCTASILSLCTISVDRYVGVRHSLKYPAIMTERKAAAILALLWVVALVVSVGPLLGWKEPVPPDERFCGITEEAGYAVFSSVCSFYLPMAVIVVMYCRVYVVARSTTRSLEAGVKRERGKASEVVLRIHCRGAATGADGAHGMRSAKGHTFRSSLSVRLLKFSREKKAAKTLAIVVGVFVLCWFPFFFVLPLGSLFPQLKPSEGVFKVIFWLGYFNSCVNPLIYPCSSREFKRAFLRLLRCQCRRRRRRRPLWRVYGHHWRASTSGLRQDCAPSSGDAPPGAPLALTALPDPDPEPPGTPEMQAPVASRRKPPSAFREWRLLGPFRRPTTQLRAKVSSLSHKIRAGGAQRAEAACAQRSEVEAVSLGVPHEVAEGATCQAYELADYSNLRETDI
In words: [3H]prazosin binding to cloned human α1-adrenoceptor subtypes (α1d). The note with it: for Ki: [3H]prazosin, CHO cell membranes, read-out: Binding affinity (Ki, nM) α1d; for α1d/S-HT1A: selectivity: ratio of Ki at α1d and Ki at 5-HT1A. How it is done:
Binding to cloned human α1-adrenoceptor subtypes was performed in membranes from CHO cells (chinese hamster ovary cells) transfected by electroporation with DNA expressing the gene encoding each α1-adrenoceptor subtype. Cloning and stable expression of the human α1-adrenoceptor gene was performed as previously described (Testa et al. Pharmacol. Comm., 6: 79–86,1995).
CHO cells were grown in suspension in Iscove's modified Dulbecco's medium, supplemented with 10% fetal calf serum and gentamicin (50 μg/ml), at 37° C. in 7% CO2 in an humidified incubator. Cells were collected by centrifugation, lised in ice-cold Tris 5 mM and EDTA 5 mM buffer (pH 7.4) and gently homogenised. Homogenates were centrifuged at 40000×g×20 min and pellets were resuspended in a small volume of ice-cold Tris 5 mM and EDTA 5 mM buffer (pH 7.4) and immediately frozen and stored at −80° C. until use.
CHO cell membranes were resuspended and incubated in 50 mM Tris, pH 7.4, with 0.2 nM [^3H]prazosin, in a final volume of 1.02 ml for 30 min at 25° C., in absence or presence of competing drugs. Non-specific binding was determined in the presence of 10 μM phentolamine. The incubation was stopped by rapid filtration through 0.2% polyethyleneimine pretreated Schleicher & Schuell GF52 filters using a Tomtec (PerkinElmer) cell harvester. The filters were washed with 3×1 ml of ice-cold Tris buffer, dried and the radioactivity was measured in a Betaplate (Wallac) liquid scintillation counter.
The inhibition of specific binding by the compounds was analysed to estimate the IC50 value by the non-linear curve-fitting program Allfit (De Lean et al. Am. J. Physiol. 235, E97-E102, 1978). The IC50 value is converted to an affinity constant (Ki) by the equation of Cheng & Prusoff (Biochem. Pharmacol. 22: 3099–3108, 1973).

Assay [1] has as its system rhythmic bladder-voiding contractions in anaesthetised rats. Briefly: Rhythmic bladder-voiding contractions induced by bladder filling in anaesthetised rats. The format is in vivo, rat. The note with it: for ED50: Rattus norvegicus, read-out: ED50 (frequency) (extrapolated dose inducing a reduction of the number of contractions > 30% in 50% of treated rats); for ED50 / ED10 min (extrapolated dose inducing 10 minutes of disappearance of the contractions): intravenous administration, anaesthetised rats; for time of disappearance of bladder contractions: after administration of 0.3 mg/kg. How it is done:
Female Sprague-Dawley rats weighing 225–275 g (Crl: CD® (SD) IGS BR, Charles River Italia) were used. The animals were housed with free access to food and water and maintained on a forced 12-hour alternating light-dark cycle at 22–24° C. for at least one week, except during the experiment. The activity on rhythmic bladder voiding contractions was evaluated according to the method of Dray (Dray J., Pharmacol. Methods, 13:157, 1985), with some modifications as in Guarneri (Guarneri, Pharmacol. Res. 27:173, 1993). Briefly, the rats were anaesthetised by subcutaneous injection of 1.25 g/kg (5 ml/kg) urethane, after which the urinary bladder was catheterised via the urethra using PE 50 polyethylene tubing filled with physiological saline. The catheter was tied in place with a ligature around the external urethral orifice and was connected to conventional pressure transducers (Statham P23 ID/P23 XL). […] The bladder was then filled via the recording catheter by incremental volumes of warm (37° C.) saline until reflex bladder-voiding contractions occurred (usually 0.81.5 ml). For intravenous injection of bioactive compounds, PE 50 polyethylene tubing filled with physiological saline was inserted into the jugular vein.
From the cystometrogram, the number of contractions recorded 15 minutes before (basal values) and after treatment, as well as the mean amplitude of these contractions (mean height of the peaks in mmHg), was evaluated.
Since most compounds produced an effect that was relatively rapid in onset and led to a complete cessation of bladder contractions, bioactivity was conveniently estimated by measuring the duration of bladder quiescence (i.e., the length of the time during which no contractions occurred). The number of tested animals showing a reduction in the number of contractions higher than 30% of that observed in the basal period was recorded too.
The extrapolated doses which induced a reduction in the number of contractions greater than 30% in 50% of the treated rats (ED50) were evaluated by the method of Bliss (Bliss C. I., Quart J. Pharm. Pharmacol. 11, 192–216, 1938).

SMILES strings stand for the structures.

With `COc1ccccc1N1CCN(CC[C@@H](c2ccccc2F)[C@H](O)C2CCCCC2)CC1` (racemic) [Ex. 1, 1-[(SR-RS)-4-cyclohexyl-4-hydroxy-3-(2-fluorophenyl)-butyl]-4-(2-methoxyphenyl)-piperazine], on human α1d-adrenoceptor, the Ki worked out at 1 nM and the α1d/S-HT1A was 7.7. In assay [1], the ED50 is 0.03 mg/kg and the “ED10 min (extrapolated dose inducing 10 minutes of disappearance of the contractions)” value (shortened to “ED10 min”) is 0.198 mg/kg.

In the case of `COc1ccccc1N1CCN(CC[C@H](c2ccccc2)[C@@H](O)C2CCCCC2)CC1` (racemic) [Ex. 5, 1-[(RS,SR)-4-Cyclohexyl-4-hydroxy-3-phenyl-butyl]-4-(2-methoxyphenyl)-piperazine, reference compound], at human α1d-adrenoceptor, the Ki was found to be 0.5 nM and the α1d/S-HT1A turned out to be 0.8. In assay [1], the ED50 is 0.018 mg/kg, the “time of disappearance of bladder contractions” value is reported as 14 min and the “ED10 min” value was 0.066 mg/kg.

As for `COc1ccccc1N1CCN(CC[C@H](c2ccccc2F)[C@@H](O)C2CCCCC2)CC1` [Ex. 1Y, 1-[(3R,4S)-4-cyclohexyl-4-hydroxy-3-(2-fluorophenyl)-butyl]-4-(2-methoxyphenyl)-piperazine], on human α1d-adrenoceptor, the Ki came out at 1.2 nM and the α1d/S-HT1A worked out at 3.2. In addition, in assay [1], the ED50 is 0.015 mg/kg, the “time of disappearance of bladder contractions” value amounted to 24 min and the “ED10 min” value was 0.023 mg/kg. Besides, the “extrapolated dose inducing 10 minutes of disappearance of the contractions, fold lower than Ex. 5” value in assay [1] (compared with Ex. 5) is recorded as “at least 2 fold”.

As for `COc1ccccc1N1CCN(CC[C@H](c2ccccc2F)[C@H](O)C2CCCCC2)CC1` [Ex. 2X, 1-[(3R,4R)-4-cyclohexyl-4-hydroxy-3-(2-fluorophenyl)-butyl]-4-(2-methoxyphenyl)-piperazine], on human α1d-adrenoceptor, the inhibitory constant (Ki) was determined as 0.5 nM and the α1d/S-HT1A is 2.1.
